Experimental data from patent publication US8394843B2, “Substituted isoindoles as glucokinase activators” (Takeda California, Inc., priority 2006, dated 2013).

Biological target: T1, glucokinase (GK) (Homo sapiens, UniProt P35557)
T1 construct: I.D. No. 1 corresponds to residues 12-465 of glucokinase; made in house; host or cells: E. coli DH10b-T1r
T1 sequence (P35557 with tags, fused parts or gaps isoform P35557-2): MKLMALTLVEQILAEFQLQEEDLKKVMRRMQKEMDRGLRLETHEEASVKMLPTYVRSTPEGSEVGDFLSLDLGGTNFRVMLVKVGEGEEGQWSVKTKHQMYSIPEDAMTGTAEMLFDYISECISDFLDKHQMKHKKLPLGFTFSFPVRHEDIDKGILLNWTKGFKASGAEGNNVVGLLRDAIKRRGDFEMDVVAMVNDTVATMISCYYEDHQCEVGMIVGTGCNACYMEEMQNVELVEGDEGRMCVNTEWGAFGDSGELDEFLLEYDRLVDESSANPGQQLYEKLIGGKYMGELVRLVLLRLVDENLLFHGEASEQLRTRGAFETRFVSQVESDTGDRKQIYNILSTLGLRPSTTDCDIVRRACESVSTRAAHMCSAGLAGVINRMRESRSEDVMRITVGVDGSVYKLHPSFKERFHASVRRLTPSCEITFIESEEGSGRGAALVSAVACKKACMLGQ
Test: enzymatic glucokinase activity assay (ATP consumption, KinaseGlo luminescence)
Assay type: biochemical
Settings: 5 mM Glucose, 5 μM ATP; for Emax: calculated maximal gain in GK enzyme activity at a saturating concentration of the compound, read-out: % ACTmax; for EC50: negative log of Kact, the concentration that displays 50% of the maximal increase in GK activity, 60 min at room temperature, read-out: pKact
Description: The activity of compounds as glucokinase activators may be assayed in vitro, in vivo or in a cell line. Provided below is an enzymatic glucokinase activity assay.
Purified glucokinase may be obtained as follows. DNA encoding residues 12-465 of the full-length sequence of the human enzyme may be amplified by PCR and cloned into the HindIII and EcoRI sites of pFLAG-CTC (Sigma). SEQ. I.D. No. 1 corresponds to residues 12-465 of glucokinase.
The expression of recombinant glucokinase protein may be carried out by transformation and growth of DH10b-T1r E. coli cells incorporating the (pFLAG-CTC) plasmid in LB media. Protein expression can be induced in this system by the addition of IPTG to the culture medium.
Recombinant protein may be isolated from cellular extracts by passage over Sepharose Q Fast Flow resin (Pharmacia). This partially purified GK extract may then be further purified by a second passage over Poros HQ10 (Applied Biosystems). The purity of GK may be determined on denaturing SDS-PAGE gel. Purified GK may then be concentrated to a final concentration of 20.0 mg/ml. After flash freezing in liquid nitrogen, the proteins can be stored at −78° C. in a buffer containing 25 mM TRIS-HCl pH 7.6, 50 mM NaCl, and 0.5 mM TCEP.
The activation properties of compounds for GK may be determined using a black 384-well-plate format under the following reaction conditions: 25 mM Hepes pH 7.2, 25 mM NaCl, 10 mM MgCl2, 0.01% Brij35, 1 mM DTT, 5 μM ATP, 5 mM Glucose 2% DMSO. The amount of ATP consumed may be determined quantitatively by addition of equal volume of luciferase reagent (luciferase+beetle luciferin—KinaseGlo Luminescent Kinase Assay kit from Promega). The luminescence intensity may be measured by using the Analyst HT from LJL Biosystems.
The assay reaction may be initiated as follows: 4 μl of substrate mixture (12.5 μM ATP and 12.5 mM Glucose) was added to each well of the plate, followed by the addition of 2 μl of activator (2 fold serial dilutions for 11 data points for each activator) containing 10% DMSO. 4 μL of 1.25 nM GK solution may be added to initiate the reaction. The reaction mixture may then be incubated at room temperature for 60 min, and quenched and developed by addition of 10 μL of luciferase reagent. Luminescence intensities of the resulting reaction mixtures may be measured after a 10 min incubation at room temperature. The luminescence intensity may be measured by using the Analyst HT from LJL Biosystems.
pKact and % ACTmax values may be calculated by non-linear curve fitting of the compound concentrations and luminescence intensities to a standard inhibition/activation equation. […] “pKact” is the negative log of the Kact value; i.e., −log10 [Kact]. % Actmax represents the calculated maximal gain in GK enzyme activity at a saturating concentration of the compound. pKact and % ACTmax values for select compounds of the present invention are given in Table 1.

Row | SMILES | Emax | EC50
1 | Cc1c2cc(F)ccc2nn1C(CC(C)C)C(=O)Nc1nccs1 (stereo not drawn) [Example 9, 2-(5-fluoro-3-methyl-2H-indazol-2-yl)-4-methyl-N-(thiazol-2-yl)pentanamide] | 50 to 60% | 12.6 to 25.1 µM
2 | COc1ccc2nn(C(CC(C)C)C(=O)Nc3nccs3)cc2c1 (stereo not drawn) [Example 6, 2-(5-methoxy-2H-indazol-2-yl)-4-methyl-N-(thiazol-2-yl)pentanamide] | 50 to 60% | ≥ 31.6 µM
3 | N=C1c2cc(F)ccc2CN1C(CC1CCCCC1)C(=O)Nc1nccs1 (stereo not drawn) [Example 12, 3-cyclohexyl-2-(6-fluoro-1-iminoisoindolin-2-yl)-N-(thiazol-2-yl)propanamide] | > 60% | 12.6 to 25.1 µM
4 | CC(C)CC(C(=O)Nc1nccs1)n1cc2cc(F)ccc2n1 (stereo not drawn) [Example 3, 2-(5-fluoro-2H-indazol-2-yl)-4-methyl-N-(thiazol-2-yl)pentanamide] | 50 to 60% | ≥ 31.6 µM
5 | CC(C)CC(C(=O)Nc1nccs1)n1cc2ccc([N+](=O)[O-])cc2n1 (stereo not drawn) [Example 4, 4-methyl-2-(6-nitro-2H-indazol-2-yl)-N-(thiazol-2-yl)pentanamide] | < 50% | ≤ 10 µM
6 | CC(C)CC(C(=O)Nc1nccs1)n1cc2ccc(S(C)(=O)=O)cc2n1 (stereo not drawn) [Example 5, 4-methyl-2-(6-(methylsulfonyl)-2H-indazol-2-yl)-N-(thiazol-2-yl)pentanamide] | < 50% | 12.6 to 25.1 µM
7 | N=C1c2ccccc2CN1C(CC1CCCCC1)C(=O)Nc1nccs1 (stereo not drawn) [Example 11, 3-cyclohexyl-2-(1-iminoisoindolin-2-yl)-N-(thiazol-2-yl)propanamide] | > 60% | ≤ 10 µM

Now from value to compound:

Row | Emax | EC50 | SMILES
8 | > 60% | ≥ 31.6 µM | CC(C)CC(C(=O)Nc1nccs1)n1cc2ccccc2n1 (stereo not drawn) [Example 2, 2-(2H-indazol-2-yl)-4-methyl-N-(thiazol-2-yl)pentanamide]
9 | > 60% | ≤ 10 µM | CC(C)CC(C(=O)Nc1nccs1)N1C(=O)c2ccccc2C1=O (stereo not drawn) [Example 13, 2-(1,3-dioxoisoindolin-2-yl)-4-methyl-N-(thiazol-2-yl)pentanamide]
10 | > 60% | 12.6 to 25.1 µM | CC(C)CC(C(=O)Nc1ccccn1)N1C(=O)c2ccccc2C1=O (stereo not drawn) [Example 14, 2-(1,3-dioxoisoindolin-2-yl)-4-methyl-N-(pyridin-2-yl)pentanamide]
11 | > 60% | ≥ 31.6 µM | CC(C)CC(C(=O)Nc1nccs1)n1cc2cc(O)ccc2n1 (stereo not drawn) [Example 7, 2-(5-hydroxy-2H-indazol-2-yl)-4-methyl-N-(thiazol-2-yl)pentanamide]
12 | < 50% | ≤ 10 µM | Cc1c2ccccc2nn1C(CC(C)C)C(=O)Nc1nccs1 (stereo not drawn) [Example 8, 4-methyl-2-(3-methyl-2H-indazol-2-yl)-N-(thiazol-2-yl)pentanamide]
